# Assay: in vitro
# Details: human, hela cells, % viability
smiles,measurement,value
Cc1nc(C2CCN(C(=O)c3cscn3)CC2)c2sccn12 [CBK285240],"viability at 28.5 h, 10 µM",107%
Cc1csc2c(C3CCN(C(=O)c4cccnc4)CC3)nc(C)n12 [CBK285242],"viability at 28.5 h, 10 µM",85.1%
Cc1csc2c(C3CCN(C(=O)c4ccncc4)CC3)nc(C)n12 [CBK285243],"viability at 28.5 h, 10 µM",84.4%
Cc1cc(C(=O)N2CCC(c3nc(C)n4c(C)csc34)CC2)on1 [CBK285247],"viability at 28.5 h, 10 µM",99.3%
Cc1csc2c(C3CCN(C(=O)c4ccnn4C)CC3)nc(C)n12 [CBK285249],"viability at 28.5 h, 10 µM",94.3%
Cc1ccn2cc(-c3ccc4c(c3)CC(C)N4S(C)(=O)=O)cc2c1 (stereo not shown) [CBK285253],"viability at 28.5 h, 10 µM",89%
Cn1ncc2c1CCCN(C(=O)CCc1ccccc1F)C2 [CBK285255],"viability at 28.5 h, 10 µM",96.8%
CS(=O)(=O)N1CCc2cc(-c3cc4ccccn4c3)ccc21 [CBK285256],"viability at 28.5 h, 10 µM",107%
CCCC(=O)N1CCC(c2nc3ccccc3cc2NC(C)=O)CC1 [CBK285258],"viability at 28.5 h, 10 µM",78.4%
COc1ccc(-c2cc(C3CCN(C(=O)C4CC4)C3)[nH]n2)cc1 (stereo not shown) [CBK285263],"viability at 28.5 h, 10 µM",91.5%
CCNC(=O)[C@H]1CN(Cc2ccccc2)C[C@@H]1C(=O)c1ccccc1 [CBK285265],"viability at 28.5 h, 10 µM",88.1%
Cc1ccc(C(=O)N2C[C@H]3CC[C@](O)(c4ccc(F)cc4)[C@H]3C2)o1 [CBK285267],"viability at 28.5 h, 10 µM",95%
Cn1ccc(C(=O)NC(Cc2ccsc2)c2ccccn2)cc1=O (stereo not shown) [CBK285273],"viability at 28.5 h, 10 µM",97.5%
COCC(=O)N1CCc2cc(-c3cn4ccccc4n3)ccc21 [CBK285274],"viability at 28.5 h, 10 µM",81.9%
CC(=O)N1C[C@H]2CCCN(S(=O)(=O)c3cccs3)[C@H]2C1 [CBK285275],"viability at 28.5 h, 10 µM",84.3%
Cc1cc(OCC(=O)N2CCCc3c(cnn3C)C2)ccc1Cl [CBK285277],"viability at 28.5 h, 10 µM",93.3%
Cn1ncc2c1CCCN(C(=O)CCCOc1ccccc1F)C2 [CBK285278],"viability at 28.5 h, 10 µM",85%
CS(=O)(=O)N1C2CCC(C2)[C@H]1COc1ccc(F)cc1 (stereo partly shown) [CBK285279],"viability at 28.5 h, 10 µM",108%
CCS(=O)(=O)N1C2CCC(C2)[C@H]1COc1ccc(F)cc1 (stereo partly shown) [CBK285280],"viability at 28.5 h, 10 µM",109%
COc1ccc(-c2cc(C3CCN(C4CCSCC4)C3)[nH]n2)cc1 (stereo not shown) [CBK285282],"viability at 28.5 h, 10 µM",99.3%
COc1ccc(CC(=O)N2CCCc3c(cnn3C)C2)cc1F [CBK285285],"viability at 28.5 h, 10 µM",87.9%
Cn1ncc2c1CCCN(C(=O)COc1ccc(C(C)(C)C)cc1)C2 [CBK285286],"viability at 28.5 h, 10 µM",115%
Cc1ccc(OCCCC(=O)N2CCCc3c(cnn3C)C2)c(C)c1 [CBK285288],"viability at 28.5 h, 10 µM",96.9%
Cc1cnccc1CN1CCC[C@@H]2CN(C(=O)CC(C)C)C[C@@H]21 [CBK285289],"viability at 28.5 h, 10 µM",104%
Cc1cccc(CN2CCC[C@@H]3CN(C(=O)CC(C)C)C[C@@H]32)n1 [CBK285291],"viability at 28.5 h, 10 µM",108%
CC(C)S(=O)(=O)N1C2CCC(C2)[C@@H]1COc1ccc(F)cc1 (stereo partly shown) [CBK285292],"viability at 28.5 h, 10 µM",101%
CC(=O)N1C[C@H]2CCCN(S(=O)(=O)c3ccc(Cl)s3)[C@H]2C1 [CBK285293],"viability at 28.5 h, 10 µM",105%
CC(C)N1C[C@@H](C(=O)NC(C)(C)C)[C@@]2(Cc3ccccc3C(=O)N2)C1 [CBK285295],"viability at 28.5 h, 10 µM",101%
CCS(=O)(=O)N1C[C@H]2CC[C@](O)(c3ccc(C)cc3)[C@H]2C1 [CBK285296],"viability at 28.5 h, 10 µM",107%
Cc1sc2c(C3CCN(C(=O)C4CC4)CC3)nc(C)n2c1C [CBK285298],"viability at 28.5 h, 10 µM",101%
Cc1sc2c(C3CCN(C(=O)C4CC4C)CC3)nc(C)n2c1C (stereo not shown) [CBK285299],"viability at 28.5 h, 10 µM",66.4%
O=c1c2cc(F)ccc2nc2n1CCN(Cc1ccccc1)CC2 [CBK285300],"viability at 28.5 h, 10 µM",94.5%
Cc1ccc2c(c1)c(=O)cc(C(F)(F)F)n2C[C@H]1CCCN1 [CBK285303],"viability at 28.5 h, 10 µM",36.2%
CCCC(=O)N1CCC(c2cc(C(F)F)c3c(C)noc3n2)CC1 [CBK285304],"viability at 28.5 h, 10 µM",102%
Cc1noc2nc(C3CCN(C(=O)C(C)C)CC3)cc(C(F)F)c12 [CBK285305],"viability at 28.5 h, 10 µM",79.9%
Fc1ccc(-c2[nH]c3ncccc3c2CN2CCOCC2)cc1 [CBK285310],"viability at 28.5 h, 10 µM",111%
CC(C)c1[nH]c2ncccc2c1CN1CCSCC1 [CBK285312],"viability at 28.5 h, 10 µM",94%
c1cnc2[nH]c(C3CC3)c(CN3CCN4CCCCC4C3)c2c1 (stereo not shown) [CBK285313],"viability at 28.5 h, 10 µM",81.5%
Cc1cc2c(cc1C)OC1(C=C2)CCN(C(=O)N2CCOCC2)CC1 [CBK285314],"viability at 28.5 h, 10 µM",94.4%
Cc1ccc(S(=O)(=O)N2C[C@H]3C[C@H](NC(=O)C(C)C)[C@H]3C2)cc1 [CBK285317],"viability at 28.5 h, 10 µM",107%
Cc1ccc(S(=O)(=O)N2C[C@H]3C[C@H](NC(=O)C4CC4C)[C@H]3C2)cc1 (stereo partly shown) [CBK285318],"viability at 28.5 h, 10 µM",108%
O=C1NCC2(CCN(Cc3ccccc3)CC2)Oc2ccccc21 [CBK285323],"viability at 28.5 h, 10 µM",91.8%
Cn1ncc2c1CCCN(C(=O)COc1ccccc1F)C2 [CBK285324],"viability at 28.5 h, 10 µM",101%
CCOc1ccc(CC(=O)N2CCCc3c(cnn3C)C2)cc1 [CBK285325],"viability at 28.5 h, 10 µM",101%
Cc1ccc(C(=O)N2CCC3(CC2)CNC(=O)c2ccccc2O3)o1 [CBK285328],"viability at 28.5 h, 10 µM",88.3%
COC(=O)C1(Cc2cc(-c3ccc(F)cc3)no2)CCOCC1 [CBK285329],"viability at 28.5 h, 10 µM",79.3%
COC(=O)C1(Cc2cc(-c3cccc(F)c3)no2)CCOCC1 [CBK285330],"viability at 28.5 h, 10 µM",95.8%
COc1ccc(-c2[nH]c3ncccc3c2CN2CCCC2)cc1 [CBK285331],"viability at 28.5 h, 10 µM",69.4%
CN1CCN(Cc2c(C3CCCC3)[nH]c3ncccc23)CC1 [CBK285336],"viability at 28.5 h, 10 µM",88.6%
COc1ccc(-c2[nH]c3ncccc3c2CN2CCSCC2)cc1 [CBK285338],"viability at 28.5 h, 10 µM",91.9%
CCN1CCN(Cc2c(C(C)C)[nH]c3ncccc23)CC1 [CBK285343],"viability at 28.5 h, 10 µM",83.6%
CC1CN(Cc2c(C(F)(F)F)[nH]c3ncccc23)CC(C)O1 (stereo not shown) [CBK285344],"viability at 28.5 h, 10 µM",88.5%
O=C1NCCCC12CCN(Cc1ccc(F)cc1)CC2 [CBK285345],"viability at 28.5 h, 10 µM",83.1%
O=C(NCc1ccccn1)c1ccc(-n2ccnc2)c(-n2cccc2)c1 [CBK285347],"viability at 28.5 h, 10 µM",80.8%
COCC(=O)NC1CCN(CC2(c3ccc(C)cc3)CC2)CC1 [CBK285350],"viability at 28.5 h, 10 µM",104%
O=C(NC1CCN(CC2(c3ccccc3)CC2)CC1)c1cc[nH]n1 [CBK285351],"viability at 28.5 h, 10 µM",88.4%
O=C(NC1CCN(CC2(c3ccccc3)CC2)CC1)C1CCOCC1 [CBK285352],"viability at 28.5 h, 10 µM",94.4%
CC1CC1C(=O)NC1CCN(CC2(c3ccccc3)CC2)CC1 (stereo not shown) [CBK285353],"viability at 28.5 h, 10 µM",83.2%
CC(C)N1CCN(Cc2c(C(F)(F)F)[nH]c3ncccc23)CC1 [CBK285354],"viability at 28.5 h, 10 µM",88.3%
COc1ccc(C2(CN3CCC(NC(C)=O)CC3)CC2)cc1 [CBK285357],"viability at 28.5 h, 10 µM",101%
COc1ccc(C2(CN3CCC(NC(=O)C4CC4)CC3)CC2)cc1 [CBK285358],"viability at 28.5 h, 10 µM",101%
Cc1ccc(C2(CN3CCC(NC(=O)C4CC4)CC3)CC2)cc1 [CBK285359],"viability at 28.5 h, 10 µM",83.9%
CCN1CCN(Cc2c(C(F)(F)F)[nH]c3ncccc23)CC1 [CBK285362],"viability at 28.5 h, 10 µM",95.2%
O=C(c1ccc(-n2ccnc2)c(-n2cccc2)c1)N1CCSCC1 [CBK285364],"viability at 28.5 h, 10 µM",97.4%
O=C(NC1CCCCC1)c1ccc(-n2ccnc2)c(-n2cccc2)c1 [CBK285365],"viability at 28.5 h, 10 µM",107%
O=C(NCc1cccs1)c1ccc(-n2ccnc2)c(-n2cccc2)c1 [CBK285366],"viability at 28.5 h, 10 µM",102%
COCCNC(=O)c1ccc(-n2ccnc2)c(-n2cccc2)c1 [CBK285369],"viability at 28.5 h, 10 µM",85.5%
CC1CCCN(C(=O)c2ccc(-n3ccnc3)c(-n3cccc3)c2)C1 (stereo not shown) [CBK285370],"viability at 28.5 h, 10 µM",95.1%
COc1ccc(-c2cc3cccnc3n2CC(=O)N2CCCC2)cc1 [CBK285379],"viability at 28.5 h, 10 µM",84.3%
COc1ccc(-c2cc3cccnc3n2CC(=O)NC(C)C)cc1 [CBK285380],"viability at 28.5 h, 10 µM",100%
COc1ccc(-c2cc3cccnc3n2CC(=O)NC(C)(C)C)cc1 [CBK285381],"viability at 28.5 h, 10 µM",115%
COCCCNC(=O)Cn1c(-c2ccc(F)cc2)cc2cccnc21 [CBK285385],"viability at 28.5 h, 10 µM",88.5%
Cc1nccn1CC1(O)CCN(C(=O)C(C)c2ccccc2)CC1 (stereo not shown) [CBK285388],"viability at 28.5 h, 10 µM",104%
Cc1nc(CC(=O)NC(Cc2ccsc2)c2cccnc2)cs1 (stereo not shown) [CBK285389],"viability at 28.5 h, 10 µM",110%
Cc1csc(C(Cc2ccsc2)NC(=O)CCn2ccnc2)n1 (stereo not shown) [CBK285391],"viability at 28.5 h, 10 µM",91.2%
Cc1nn(C)cc1C(=O)NC(Cc1ccsc1)c1cccnc1 (stereo not shown) [CBK285392],"viability at 28.5 h, 10 µM",109%
O=C(CCn1cccn1)NC(Cc1ccsc1)c1cccnc1 (stereo not shown) [CBK285393],"viability at 28.5 h, 10 µM",101%
COc1ccc(-c2cc(C3CCCCCN3)no2)cc1 (stereo not shown) [CBK285399],"viability at 28.5 h, 10 µM",96.5%
Cc1cc(C[C@@H]2COC[C@H]2NCc2ccc(Cl)c(Cl)c2)on1 [CBK285400],"viability at 28.5 h, 10 µM",88%
CC(=O)Nc1ccc(CN2CCCCCC2c2cc(C)no2)cc1 (stereo not shown) [CBK285415],"viability at 28.5 h, 10 µM",101%
COc1cccc(C(=O)N2CCCC(c3cc4cnccc4[nH]3)C2)c1 (stereo not shown) [CBK285417],"viability at 28.5 h, 10 µM",104%
Cc1cc(CN2CC3CCCN3C[C@@H]2C)c(C)n1CC1CCCO1 (stereo partly shown) [CBK285419],"viability at 28.5 h, 10 µM",82%
CSCC[C@@H]1CN2CCC[C@H]2CN1Cc1cnc(C)n1C [CBK285423],"viability at 28.5 h, 10 µM",109%
C[C@@H]1CN2CCCC2CN1CCc1ccccc1 (stereo partly shown) [CBK285424],"viability at 28.5 h, 10 µM",85.4%
C[C@H]1CN2C[C@H](O)CC2CN1Cc1cn(C)c2ccc(F)cc12 (stereo partly shown) [CBK285428],"viability at 28.5 h, 10 µM",97.6%
OCC[C@H]1CN2CCCC2CN1Cc1cccc(Cl)c1Cl (stereo partly shown) [CBK285429],"viability at 28.5 h, 10 µM",86.6%
O=C(C1CCC1)N1CCC(c2nc(C3CCCC3)no2)C1 (stereo not shown) [CBK285434],"viability at 28.5 h, 10 µM",88.1%
CCOc1ccccc1CN1CC2CCCN2C[C@@H]1C (stereo partly shown) [CBK285435],"viability at 28.5 h, 10 µM",94.7%
C[C@H]1CN2C[C@H](O)CC2CN1Cc1ccc(Br)s1 (stereo partly shown) [CBK285439],"viability at 28.5 h, 10 µM",96.1%
C[C@H]1CN2CCCC2CN1Cc1ccc2c(c1)CCO2 (stereo partly shown) [CBK285443],"viability at 28.5 h, 10 µM",104%
Cc1cc(C2CCCCCN2C(=O)c2ccc(F)cc2)on1 (stereo not shown) [CBK285447],"viability at 28.5 h, 10 µM",106%
